Measurements reported in patent US4317912A, “Tetracyclic indole derivatives” (Farmitalia Carlo Erba S.p.A., priority 1979, dated 1982).

Columns and labels:
[1] = test system: spontaneously hypertensive male rats, strain MHS; assay: Anti-hypertensive activity in spontaneously hypertensive rats (MHS), blood pressure and heart rate measured at the tail; type: in vivo, rat (spontaneously hypertensive; details: for Change in BP, 1st day, 1 hr after dose / Change in HR, 1st day, 1 hr after dose / Change in BP, 1st day, 5 hrs after dose / Change in HR, 1st day, 5 hrs after dose / Change in BP, 4th day, 1 hr after dose / Change in HR, 4th day, 1 hr after dose / Change in BP, 4th day, 5 hrs after dose / Change in HR, 4th day, 5 hrs after dose: mean of 4 animals; for Tolerance after repeated administration: four days, 355/1226 3 mg/kg, 355/1225 and 355/1229 5 mg/kg per os; for Activity compared with Hydralazine and α-methyl-DOPA: 5 mg/kg per os, vs Hydralazine (3 mg/kg per os) and α-methyl-DOPA
Procedure: Four spontaneously hypertensive male rats, strains MHS, weighing 250-300 g for each group were used.
The animals were treated for four consecutive days. Drugs were administered by gastric gavage, suspended in 5% arabic gum (0.2 ml/100 g body weight). Blood pressure (BP) and heart rate (HR) were measured at the tail by BP Recorder W+W. Blood pressure and heart rate were measured on the 1st and 4th day of treatment 1 hour before and 1 and 5 hours after drug administration.
*Data of LD50 from the literature. In Tables 1 and 2 are reported
the results of the study of the activity of compounds 355/1165 and
355/1166 upon the BP and HR (measured indirectly by means of a tail cuff)
of spontaneous hypertensive rats, MHS strain (4 rats each group). The
compounds were given orally, once a day for 4 consecutive days.

[2] = test system: spontaneously hypertensive rats (Okamoto strain); assay: Anti-hypertensive activity in conscious spontaneously hypertensive rats (Okamoto), carotid artery catheter; type: in vivo, rat (spontaneously hypertensive; details: for Change in blood pressure after treatment, 30' / Change in heart rate after treatment, 30' / Change in blood pressure after treatment, 60' / Change in heart rate after treatment, 60' / Change in blood pressure after treatment, 120' / Change in heart rate after treatment, 120' / Change in blood pressure after treatment, 240' / Change in heart rate after treatment, 240' / Change in blood pressure after treatment, 360' / Change in heart rate after treatment, 360': mean of 6 animals
Procedure: Blood pressure recordings were made in conscious hypertensive unrestrained rats weighing approximately 300 g, via a catheter cronically inserted into the left common carotid artery. Implantation of arterial cannula was made under sodium pentobarbital anesthesia (50 mg/kg i.p.). A 1 cm long incision was made through the previously shaved ventral surface of the neck and the tissues overlying the trachea parted by blunt dissection to reveal the carotid artery. The polyethylene catheter used was made with PE 50 tubing, previously filled with saline containing 250 I.U./ml heparin. The tip of the cannula was pushed at least 2 cm inside the vessel toward the heart. The cannula was then firmly tied and passed beneath the skin to emerge from a small incision in the back of the neck. During the postoperative period and before the start of each recording session, the cannula was flushed through daily with saline containing heparin (250 U.I./ml). The experiments were performed two days after surgery. Drugs were administered by gastric gavage.

[3] = Acute (orientative) oral toxicity in mice; details: mouse, in vivo
Excerpt: The male mice for each group were orally treated with drugs at different dose levels for the determination of orientative toxicity.

[4] = MHS rats, 0.5 mg/kg os, 1st day
[5] = MHS rats, 0.5 mg/kg os, 4th day
[6] = MHS rats, 1 and 5 mg/kg orally, 1st and 4th day

## CN1CC(CC(C#N)C(N)=O)C2Cc3cccc4[nH]cc(c34)CC21 (stereo not drawn) [355/1165, 2-Cyano-3-[trans-5(10→9)abeo-6-methyl-ergoline-8β]-propionamide]
[1]; [4]
  Change in BP, 1st day, 1 hr after dose: -13 mmHg
  Change in HR, 1st day, 1 hr after dose: -25 b/min
  Change in BP, 1st day, 5 hrs after dose: -17 mmHg
  Change in HR, 1st day, 5 hrs after dose: -25 b/min
[1]; [5]
  Change in BP, 4th day, 1 hr after dose: -17 mmHg
  Change in HR, 4th day, 1 hr after dose: -30 b/min
  Change in BP, 4th day, 5 hrs after dose: -3 mmHg
  Change in HR, 4th day, 5 hrs after dose: -35 b/min
[1]; MHS rats, 1 mg/kg os, 1st day
  Change in BP, 1st day, 1 hr after dose: -15 mmHg
  Change in HR, 1st day, 1 hr after dose: -20 b/min
  Change in BP, 1st day, 5 hrs after dose: -19 mmHg
  Change in HR, 1st day, 5 hrs after dose: -15 b/min
[1]; MHS rats, 1 mg/kg os, 4th day
  Change in BP, 4th day, 1 hr after dose: -30 mmHg
  Change in HR, 4th day, 1 hr after dose: -27 b/min
  Change in BP, 4th day, 5 hrs after dose: -42 mmHg
  Change in HR, 4th day, 5 hrs after dose: -20 b/min
[1]; MHS rats, 2 mg/kg os, 1st day
  Change in BP, 1st day, 1 hr after dose: -25 mmHg
  Change in HR, 1st day, 1 hr after dose: -47 b/min
  Change in BP, 1st day, 5 hrs after dose: -53 mmHg
  Change in HR, 1st day, 5 hrs after dose: -80 b/min
[1]; MHS rats, 2 mg/kg os, 4th day
  Change in BP, 4th day, 1 hr after dose: -33 mmHg
  Change in HR, 4th day, 1 hr after dose: -48 b/min
  Change in BP, 4th day, 5 hrs after dose: -45 mmHg
  Change in HR, 4th day, 5 hrs after dose: -55 b/min
[1]; MHS rats, 0.5, 1 and 2 mg/kg per os, 1st and 4th day
  Effect on BP: significantly lowers BP on the 1st and 4th day after the treatment
[1]; MHS rats, 1st day, 355/1165 2 mg/kg, 355/1226 3 mg/kg per os vs Hydralazine 3 mg/kg per os
  Antihypertensive activity compared with Hydralazine, 1st day: more marked antihypertensive activity
[1]; MHS rats, 4th day, 355/1165 2 mg/kg, 355/1226 3 mg/kg per os vs Hydralazine 3 mg/kg per os
  Antihypertensive effect compared with Hydralazine, 4th day: even greater effect
[1]; MHS rats, 355/1165 2 mg/kg
  Tolerance after repeated administration: tolerance does not occur after repeated administration
[1]; MHS rats, 355/1165 2 mg/kg, 355/1226 3 mg/kg per os
  Activity compared with α-methyl-DOPA: 50 times
[2]; 1 mg/kg os
  Change in blood pressure after treatment, 30': -21 mmHg
  Change in heart rate after treatment, 30': -25 b/min
  Change in blood pressure after treatment, 60': -29 mmHg
  Change in heart rate after treatment, 60': -45 b/min
  Change in blood pressure after treatment, 120': -33 mmHg
  Change in heart rate after treatment, 120': -52 b/min
  Change in blood pressure after treatment, 240': -26 mmHg
  Change in heart rate after treatment, 240': -8 b/min
  Change in blood pressure after treatment, 360': -23 mmHg
  Change in heart rate after treatment, 360': +18 b/min
[2]; 1 mg/kg per os
  Activity compared with hydralazine: 3 times
  Hypotensive activity: marked and long lasting hypotensive activity
[2]; oral (Table 4)
  Effect on heart rate: slight bradycardia and never tachicardia
[3]
  LD50 at 168 h: > 1000 mg/kg

## NNc1nncc2ccccc12 [Hydralazine, reference compound]
[1]; MHS rats, 1 mg/kg os, 1st day
  Change in BP, 1st day, 1 hr after dose: 0 mmHg
  Change in HR, 1st day, 1 hr after dose: +20 b/min
  Change in BP, 1st day, 5 hrs after dose: -10 mmHg
  Change in HR, 1st day, 5 hrs after dose: +25 b/min
[1]; MHS rats, 1 mg/kg os, 4th day
  Change in BP, 4th day, 1 hr after dose: +7 mmHg
  Change in HR, 4th day, 1 hr after dose: +30 b/min
  Change in BP, 4th day, 5 hrs after dose: +2 mmHg
  Change in HR, 4th day, 5 hrs after dose: +15 b/min
[1]; MHS rats, 3 mg/kg os, 1st day
  Change in BP, 1st day, 1 hr after dose: -43 mmHg
  Change in HR, 1st day, 1 hr after dose: +31 b/min
  Change in BP, 1st day, 5 hrs after dose: -29 mmHg
  Change in HR, 1st day, 5 hrs after dose: +34 b/min
[1]; MHS rats, 3 mg/kg os, 4th day
  Change in BP, 4th day, 1 hr after dose: -15 mmHg
  Change in HR, 4th day, 1 hr after dose: +18 b/min
  Change in BP, 4th day, 5 hrs after dose: +5 mmHg
  Change in HR, 4th day, 5 hrs after dose: +13 b/min
[1]; MHS rats, oral, all doses treated (Table 2)
  Effect on heart rate: no effect on heart rate
[2]; 3 mg/kg os
  Change in blood pressure after treatment, 30': -25 mmHg
  Change in heart rate after treatment, 30': +50 b/min
  Change in blood pressure after treatment, 60': -33 mmHg
  Change in heart rate after treatment, 60': +21 b/min
  Change in blood pressure after treatment, 120': -40 mmHg
  Change in heart rate after treatment, 120': +52 b/min
  Change in blood pressure after treatment, 240': -29 mmHg
  Change in heart rate after treatment, 240': +3 b/min
  Change in blood pressure after treatment, 360': -7 mmHg
  Change in heart rate after treatment, 360': +3 b/min

## CN1CC(CC(C#N)C(N)=O)C2=Cc3cccc4[nH]cc(c34)CC21 (stereo not drawn) [355/1229, 2-Cyano-3-[5(10→9)abeo-9,10-didehydro-6-methyl-ergoline-8β]-propionamide]
[1]; MHS rats, 1 mg/kg os, 1st day
  Change in BP, 1st day, 1 hr after dose: -26 mmHg
  Change in HR, 1st day, 1 hr after dose: +25 b/min
  Change in BP, 1st day, 5 hrs after dose: -19 mmHg
  Change in HR, 1st day, 5 hrs after dose: -2 b/min
[1]; MHS rats, 1 mg/kg os, 4th day
  Change in BP, 4th day, 1 hr after dose: -21 mmHg
  Change in HR, 4th day, 1 hr after dose: -18 b/min
  Change in HR, 4th day, 5 hrs after dose: -53 b/min
[1]; MHS rats, 5 mg/kg os, 1st day
  Change in BP, 1st day, 1 hr after dose: -26 mmHg
  Change in HR, 1st day, 1 hr after dose: -40 b/min
  Change in BP, 1st day, 5 hrs after dose: -20 mmHg
  Change in HR, 1st day, 5 hrs after dose: -35 b/min
[1]; MHS rats, 5 mg/kg os, 4th day
  Change in BP, 4th day, 1 hr after dose: -36 mmHg
  Change in HR, 4th day, 1 hr after dose: -50 b/min
  Change in BP, 4th day, 5 hrs after dose: -45 mmHg
  Change in HR, 4th day, 5 hrs after dose: -55 b/min
[1]; MHS rats, 1st and 4th day
  Activity compared with Hydralazine and α-methyl-DOPA: greater activity
[1]; [6]
  Effect on blood pressure: both dosages reduce BP in a similar way on the 1st day, when during the 4th day the decrease of BP is dose-dependent
[1]; MHS rats, 355/1165 2 mg/kg
  Tolerance after repeated administration: No tolerance occurs
[3]
  LD50 at 168 h: 600 mg/kg

## CN1CC(CCC#N)C2Cc3cccc4[nH]cc(c34)CC21 (stereo not drawn) [355/1225, Trans-5(10→9)abeo-6-methyl-ergoline-8β-propionitrile]
[1]; MHS rats, 1 mg/kg os, 1st day
  Change in BP, 1st day, 1 hr after dose: -28 mmHg
  Change in HR, 1st day, 1 hr after dose: +5 b/min
  Change in BP, 1st day, 5 hrs after dose: -17 mmHg
  Change in HR, 1st day, 5 hrs after dose: -22 b/min
[1]; MHS rats, 1 mg/kg os, 4th day
  Change in BP, 4th day, 1 hr after dose: -34 mmHg
  Change in HR, 4th day, 1 hr after dose: -40 b/min
  Change in BP, 4th day, 5 hrs after dose: -21 mmHg
  Change in HR, 4th day, 5 hrs after dose: -43 b/min
[1]; MHS rats, 5 mg/kg os, 1st day
  Change in BP, 1st day, 1 hr after dose: -67 mmHg
  Change in HR, 1st day, 1 hr after dose: -32 b/min
  Change in BP, 1st day, 5 hrs after dose: -42 mmHg
  Change in HR, 1st day, 5 hrs after dose: -4 b/min
[1]; MHS rats, 5 mg/kg os, 4th day
  Change in BP, 4th day, 1 hr after dose: -34 mmHg
  Change in HR, 4th day, 1 hr after dose: -55 b/min
  Change in BP, 4th day, 5 hrs after dose: -21 mmHg
  Change in HR, 4th day, 5 hrs after dose: -59 b/min
[1]; MHS rats, 1st and 4th day
  Activity compared with Hydralazine and α-methyl-DOPA: greater activity
[1]; MHS rats, 1 and 5 mg/kg orally
  Time of peak effect on blood pressure: one hour after dosing
[1]; [6]
  Effect on blood pressure: reduces blood pressure in dose-dependent manner on both the 1st and 4th day of treatment
[1]; MHS rats, 355/1165 2 mg/kg
  Tolerance after repeated administration: No tolerance occurs
[3]
  LD50 at 168 h: 600 mg/kg
